Non-standard residues stand in square brackets, D forms with d. Residues, ends and D or L forms follow the SMILES beside them. 3Amb = NCc1cccc(C(=O)O)c1
Columns and labels:
GPIIb/IIIa receptor = molecular target: T1, GPIIb/IIIa receptor (Homo sapiens, UniProt P05106+P08514); assay: GPIIb/IIIa Receptor-Biotinylated Fibrinogen Binding Assay; conditions: inhibition of fibrinogen binding to purified GPIIb/IIIa
T1 construct: The GPIIb/IIIa receptor was purified from human platelets; from tissue; host or cells: human platelets (purified according to D'Souza et al., J. Biol. Chem. 1990, 265:3440-3446)
T1 sequence (P08514 32-887 limits assumed): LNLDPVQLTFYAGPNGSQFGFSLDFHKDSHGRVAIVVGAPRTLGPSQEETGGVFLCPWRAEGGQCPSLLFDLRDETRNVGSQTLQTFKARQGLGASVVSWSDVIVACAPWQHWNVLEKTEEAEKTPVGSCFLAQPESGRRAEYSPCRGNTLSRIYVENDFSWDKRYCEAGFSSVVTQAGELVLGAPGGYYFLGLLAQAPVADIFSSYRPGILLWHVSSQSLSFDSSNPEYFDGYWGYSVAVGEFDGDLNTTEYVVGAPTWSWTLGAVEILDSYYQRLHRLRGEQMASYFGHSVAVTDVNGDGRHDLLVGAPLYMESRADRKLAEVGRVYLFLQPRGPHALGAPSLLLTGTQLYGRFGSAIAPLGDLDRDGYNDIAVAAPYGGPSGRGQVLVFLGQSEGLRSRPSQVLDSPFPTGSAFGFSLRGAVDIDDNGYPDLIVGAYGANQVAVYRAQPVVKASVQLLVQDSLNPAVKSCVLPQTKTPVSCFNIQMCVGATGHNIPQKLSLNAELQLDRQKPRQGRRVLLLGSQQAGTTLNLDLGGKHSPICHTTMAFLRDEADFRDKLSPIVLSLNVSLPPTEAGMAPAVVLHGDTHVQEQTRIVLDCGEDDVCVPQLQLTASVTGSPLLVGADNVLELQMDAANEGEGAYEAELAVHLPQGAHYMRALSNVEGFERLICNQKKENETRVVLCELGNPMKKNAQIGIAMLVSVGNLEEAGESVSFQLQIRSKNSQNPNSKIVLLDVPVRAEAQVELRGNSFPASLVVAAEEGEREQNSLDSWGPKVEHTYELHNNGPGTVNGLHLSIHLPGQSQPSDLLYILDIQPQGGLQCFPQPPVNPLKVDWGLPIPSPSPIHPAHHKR
T1 sequence (P08514 891-1039 partner limits assumed): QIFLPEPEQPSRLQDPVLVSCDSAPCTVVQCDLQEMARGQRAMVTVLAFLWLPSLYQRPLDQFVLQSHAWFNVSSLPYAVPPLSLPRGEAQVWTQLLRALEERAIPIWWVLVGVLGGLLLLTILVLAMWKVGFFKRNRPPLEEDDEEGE
T1 sequence (P05106 27-788): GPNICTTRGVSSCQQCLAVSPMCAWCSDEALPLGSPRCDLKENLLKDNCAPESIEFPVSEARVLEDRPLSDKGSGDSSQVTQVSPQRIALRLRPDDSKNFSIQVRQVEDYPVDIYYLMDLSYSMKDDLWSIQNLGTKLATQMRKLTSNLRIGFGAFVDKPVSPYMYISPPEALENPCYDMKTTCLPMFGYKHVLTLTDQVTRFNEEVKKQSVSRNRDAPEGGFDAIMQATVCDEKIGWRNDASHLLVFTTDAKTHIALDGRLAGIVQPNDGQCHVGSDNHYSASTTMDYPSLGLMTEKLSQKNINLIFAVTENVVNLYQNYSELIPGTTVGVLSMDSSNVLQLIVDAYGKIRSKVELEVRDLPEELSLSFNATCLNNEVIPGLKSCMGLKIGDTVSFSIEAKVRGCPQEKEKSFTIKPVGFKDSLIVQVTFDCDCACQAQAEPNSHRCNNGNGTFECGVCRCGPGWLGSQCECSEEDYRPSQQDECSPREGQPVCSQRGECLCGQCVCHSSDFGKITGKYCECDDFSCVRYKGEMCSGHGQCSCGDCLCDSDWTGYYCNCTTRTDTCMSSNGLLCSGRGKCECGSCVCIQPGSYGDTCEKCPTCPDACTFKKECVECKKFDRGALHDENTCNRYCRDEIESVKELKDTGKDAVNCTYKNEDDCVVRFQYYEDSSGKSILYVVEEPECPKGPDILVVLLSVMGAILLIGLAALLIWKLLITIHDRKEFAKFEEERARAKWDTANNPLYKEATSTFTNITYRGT
Description: Compounds may be tested for their ability to block binding of vitronectin to the αv /β3 receptor and to block the binding of fibrinogen to GPIIb/IIIa receptor in the αv /β3 -Biotinylated Vitronectin Binding Assay and GPIIb/IIIa Receptor-Biotinylated Fibrinogen Binding Assay described below.
GPIIb/IIIa Receptor-Biotinylated Fibrinogen Binding Assay
The GPIIb/IIIa receptor was purified from human platelets according to D'Souza et al. (J. Biol. Chem., 1990, 265:3440-3446). The purified GPIIb/IIIa protein was coated on 96 well plates and the competition between test compound and biotinylated fibrinogen for binding to the plate-immobilized GPIIb/IIIa receptor was determined by ELISA as described below. Bound fibrinogen was detected using an avidin-alkaline phosphatase conjugate and paranitrophenol detection at […]. For IC50 determination, test agent was added at various concentrations to plates coated with purified GPIIb/IIIa protein which was followed by the addition of biotinylated fibrinogen. The inhibitory binding constant (Ki) of test agents were calculated under this assay system using standard Michaelis-Menten analysis. The IC50 is the concentration of test substance needed to block 50% of the fibrinogen binding to the GPIIb/IIIa receptor.
The following reagents may be used in the GPIIb/IIIa-fibrinogen binding ELISA:
purified GPIIb/IIIa (148.8 μg/mL);
biotinylated fibrinogen (~1 mg/mL or 3000 nM);
anti-biotin alkaline phosphatase conjugate (Sigma no. A7418);
flat-bottom, high binding, 96-well plates (Costar Cat. no. 3590);
phosphatase substrate (Sigma 104) (40 mg capsules);
bovine serum albumin (BSA) (Sigma no. A3294);
Alkaline Phosphatase buffer--0.1 M glycine-HCl, 1 mM MgCl2.6H2 O, 1 mM ZnCl2, pH 10.4;
Binding buffer--20 mM Tris-HCl, 150 mM NaCl, 1 mM CaCl2.2H2 O, 0.02% NaN3, pH 7.0;
Buffer A--50 mM Tris-HCl, 100 mM NaCl, 2 mM CaCl2.2H2 O, 0.02% NaN3, pH 7.4;
Buffer A+3.5% BSA (Blocking buffer);
Buffer A+0.1% BSA (Dilution buffer);
The following method steps are used in the GPIIb/IIIa-fibrinogen binding ELISA:
Coat plates with GPIIb/IIIa in Binding buffer (125 ng/100 μL/well) overnight at 4° C. (Leave first column uncoated for non-specific binding). Cover and freeze plates at -70° C. until used. Thaw plate 1 hour at room temperature or overnight at 4° C. Discard coating solution and wash once with 200 μL Binding buffer per well. Block plate 2 hours at room temperature on shaker with 200 μl Buffer A+3.5% BSA (Blocking buffer) per well. Discard Blocking buffer and wash once with 200 μL Buffer A+0.1% BSA (Dilution buffer) per well. Pipet 11 μL of test compound (10× the concentration to be tested in Dilution buffer) into duplicate wells. […] Read plate at 405 nm. Blank against non-specific binding (NSB) well. % Inhibition is calculated as 100-(Test Compound Abs/Total Abs)×100.

Platelet Aggregation = Platelet Aggregation Assay (in vitro, ADP-induced, platelet-rich plasma); type: cell-based, mongrel dogs or human
Protocol: Platelet Aggregation Assay
Venous blood was obtained from anesthetized mongrel dogs or from healthy human donors who were drug-free and aspirin-free for at least two weeks prior to blood collection. Blood was collected into citrated Vacutainer tubes. The blood was centrifuged for 15 minutes at 150× g (850 RPM in a Sorvall RT6000 Tabletop Centrifuge with H-1000 B rotor) at room temperature, and platelet-rich plasma (PRP) was removed. The remaining blood was centrifuged for 15 minutes at 1500× g ([…]) at room temperature, and platelet-poor plasma (PPP) was removed. Samples were assayed on an aggregometer (PAP-4 Platelet Aggregation Profiler), using PPP as the blank (100% transmittance). 200 μL of PRP (5×10^8 platelets/mL) were added to each micro test tube, and transmittance was set to 0%. 20 μl of ADP (10 μM) was added to each tube, and the aggregation profiles were plotted (% transmittance versus time). Test agent (20 μL) was added at different concentrations prior to the addition of the platelet agonist. Results are expressed as % inhibition of agonist-induced platelet aggregation.

[1] = Bleeding Time in anesthetized dogs (tongue incision); conditions: dog, IV, saline 3-5
Protocol: A Simplate device (Organo Teknika) was applied to the surface of the tongue to make a uniform incision and blood was blotted with filter paper at 30 seconds intervals until bleeding completely stopped, with a 15 minutes cutoff time. Bleeding time was assessed before and at different intervals post-administration of test agent.

| SMILES | IC50 (GPIIb/IIIa receptor) [µM] | IC50 (Platelet Aggregation) [µM] | Bleeding Time ([1]; 1 mg/kg) [min] | Bleeding Time ([1]; 3 mg/kg) [min] | Bleeding Time ([1]; 10 mg/kg) [min] |
| --- | --- | --- | --- | --- | --- |
| C[C@@H]1NC(=O)c2cccc(c2)CNC(=O)[C@H](CC(=O)O)NC(=O)CNC(=O)[C@H](CCCNC(=N)N)NC1=O [Compound A, cyclo-(Ala-Arg-Gly-Asp-Mamb)] (cyclo(RGD[3Amb]A)) | 0.408 | 18 | 3 to 4 | 3 to 4 | 5 to 6 |
| N=C(N)NCCC[C@@H]1NC(=O)[C@@H]2CCCN2C(=O)c2cccc(c2)CNC(=O)[C@H](CC(=O)O)NC(=O)CNC1=O [Compound B, cyclo-(Pro-Arg-Gly-Asp-Mamb)] (cyclo(RGD[3Amb]P)) | 1.52 | 44 |  |  |  |

Source: US6056958A, “Method of treatment of arterial and venous thromboembolic disorders” (Dupont Pharmaceuticals, priority 1997, dated 2000)
